Laboratory results as given in patent publication US8324190B2, “Treatment of proliferative disorders with amino-substituted (E)-2,6- dialkoxystyryl 4-substituted benzylsulfones” (Temple University—Of The Commonwealth System of Higher …, priority 2002, dated 2012).
Structures can show the parent of a compound that is named as a salt.

Tests used:
Assay in all cases: Tumor cell viability assay, Trypan blue exclusion
Type in all cases: cell-based
Settings in all cases: cell viability after 96 hours
[1] = tested on: breast adenocarcinoma cell line BT-20
Protocol: (§1) BT-20 is an estrogen-unresponsive cell line. NIH/3T3 and HFL are normal murine and human fibroblasts, respectively. BT-20, DLD-1 and H157 were grown in Dulbecco's modified Eagle's medium (DMEM) containing 10% fetal bovine serum supplemented with penicillin and streptomycin. DU145 was cultured in RPMI with 10% fetal bovine serum containing penicillin and streptomycin. NIH3T3 and HFL cells were grown in DMEM containing 10% calf serum supplemented with penicillin and streptomycin. Cells were plated at density levels of 1.0×10^5 cells per well in six-well plates. Cell cultures were maintained at 37° C. in a humidified atmosphere of 5% CO2. Cells were treated with compounds of the invention at various concentrations. Cell viability was determined after 96 hours by the Trypan blue exclusion method. […] The number of viable cells remaining after 96 hours of treatment was determined using hemacytometer following trypan blue staining. The number of viable cells has been plotted as the percent of Vehicle treated (control) cells.

[2] = tested on: prostate carcinoma cell line DU-145
Protocol: as §1

[3] = tested on: non-small cell lung carcinoma cell line H157
Protocol: as §1

[4] = tested on: colorectal carcinoma cell line DLD-1
Protocol: as §1

| Compound | IC50 [1] [µM] | IC50 [2] [µM] | IC50 [3] [µM] | IC50 [4] [µM] |
| --- | --- | --- | --- | --- |
| COc1cc(OC)c(/C=C/S(=O)(=O)Cc2ccc(OC)c(NC(=O)c3cc(N)cc(N)c3)c2)c(OC)c1 [Example 6, (E)-2,4,6-trimethoxystyryl-3-(3,5,diaminobenzamido)-4-methoxy-benzylsulfone] | < 10 | < 10 | < 10 | < 10 |
| COc1cc(OC)c(/C=C/S(=O)(=O)Cc2ccc(OC)c(NC(=N)N)c2)c(OC)c1 [Example 3, (E)-2,4,6-Trimethoxystyryl-3-(guanidino)-4-methoxybenzyl-sulfone] | < 10 | < 10 | < 10 | < 10 |
| CNc1cc(CS(=O)(=O)/C=C/c2c(OC)cc(OC)cc2OC)ccc1OC [Example 17, (E)-2,4,6-Trimethoxystyryl-3-(N-methylamino)-4-methoxybenzyl-sulfone] | < 10 | < 10 | < 10 | < 10 |
| COc1cc(OC)c(/C=C/S(=O)(=O)Cc2ccc(OC)c(NC(=O)C(F)(F)F)c2)c(OC)c1 [Example 32, (E)-2,4,6-trimethoxystyryl-3-(trifluoroacetamido)-4-methoxy-benzylsulfone] | < 10 | < 10 | < 10 | < 10 |
| COc1cc(OC)c(/C=C/S(=O)(=O)Cc2ccc(OC)c(NC(=O)CN3CCN(C)CC3)c2)c(OC)c1 [Example 8] | < 10 | < 10 | < 10 | < 10 |
| COc1cc(OC)c(/C=C/S(=O)(=O)Cc2ccc(OC)c(NCCC(=O)O)c2)c(OC)c1 [Example 40, (E)-2,4,6-trimethoxystyryl-3-(2-carboxyethylamino)-4-methoxy-benzylsulfone] | < 10 | < 10 | < 10 | < 10 |
| COc1cc(OC)c(/C=C/S(=O)(=O)Cc2ccc(OC)c(NC(=O)C(C)(C)O)c2)c(OC)c1 [Example 30, (E)-2,4,6-trimethoxystyryl-3-(2-methyl-2-hydroxypropion-amido)-4-methoxybenzylsulfone] | < 10 | < 10 | < 10 | < 10 |
| COc1cc(OC)c(/C=C/S(=O)(=O)Cc2ccc(OC)c(NC(=O)C(C)O)c2)c(OC)c1 (centres unmarked) [Example 27, (E)-2,4,6-Trimethoxystyryl-3-(2-hydroxypropionamido)-4-methoxy benzylsulfone] | < 10 | < 10 | < 10 | < 10 |
| COc1ccc(S(=O)(=O)Nc2cc(CS(=O)(=O)/C=C/c3c(OC)cc(OC)cc3OC)ccc2OC)cc1 [Example 42, (E)-2,4,6-trimethoxystyryl-3-(4-methoxybenzenesulfamyl)-4-methoxybenzylsulfone] | < 10 | < 10 | < 10 | < 10 |
| COc1cc(OC)c(/C=C/S(=O)(=O)Cc2ccc(OC)c(NC(=O)C(C)(C)OC(C)=O)c2)c(OC)c1 [Example 31, (E)-2,4,6-trimethoxystyryl-3-(2-methyl-2-acetoxypropionamido)-4-methoxybenzyl-sulfone] | < 10 | < 10 | < 10 | < 10 |
| COc1cc(OC)c(/C=C/S(=O)(=O)Cc2ccc(OC)c(NS(=O)(=O)c3ccc(N)cc3N)c2)c(OC)c1 [Example 20, (E)-2,4,6-Trimethoxystyryl-3-(2,4-diaminobenzenesulfamyl)-4-methoxybenzylsulfone] | < 10 | < 10 | < 10 | < 10 |
| COc1cc(OC)c(/C=C/S(=O)(=O)Cc2ccc(OC)c(NC(=O)CC(Cl)C(=O)O)c2)c(OC)c1 (centres unmarked) [Example 35, (E)-2,4,6-trimethoxystyryl-3-(3-chlorosuccinamido)-4-methoxy-benzylsulfone] | < 10 | < 10 | < 10 | < 10 |
| COC(=O)C(F)(F)C(=O)Nc1cc(CS(=O)(=O)/C=C/c2c(OC)cc(OC)cc2OC)ccc1OC [Example 47, (E)-2,4,6-trimethoxystyryl-3-(methyl-2,2-difluoromalonamido)-4-methoxybenzylsulfone] | < 10 | < 10 | < 10 | < 10 |
| COc1cc(OC)c(/C=C/S(=O)(=O)Cc2ccc(OC)c(NC(=O)C[N+](CCO)(CCO)CCO)c2)c(OC)c1 [Example 29, (E)-2,4,6-trimethoxystyryl-3-[tri-(2-hydroxyethyl)ammonium]-acetamido-4-methoxybenzylsulfone] | < 10 | < 10 | < 10 | < 10 |
| COc1cc(OC)c(/C=C/S(=O)(=O)Cc2ccc(OC)c(NC(=O)C(F)(F)C(F)(F)C(=O)O)c2)c(OC)c1 [Example 48, (E)-2,4,6-Trimethoxystyryl-3-(2,2,3,3,tetrafluorosuccinamido)-4-methoxybenzylsulfone] | < 10 | < 10 | < 10 | < 10 |
| COc1cc(OC)c(/C=C/S(=O)(=O)Cc2ccc(OC)c(NC(=O)c3ccc([N+](=O)[O-])cc3)c2)c(OC)c1 [Example 10, (E)-2,4,6-Trimethoxystyryl-3-(4-nitrobenzamido)-4-methoxy-benzylsulfone] | < 10 | < 10 | < 10 | < 10 |
| COc1cc(OC)c(/C=C/S(=O)(=O)Cc2ccc(OC)c(S(=O)(=O)NCC(=O)O)c2)c(OC)c1 [Example 1, (E)-2,4,6-Trimethoxystyryl-3-(carboxymethylsulfamyl)-4-methoxybenzylsulfone] | < 10 | < 10 | < 10 | < 10 |
| COc1cc(OC)c(/C=C/S(=O)(=O)Cc2ccc(OC)c(NC(=O)CCC(=O)O)c2)c(OC)c1 [Example 34, (E)-2,4,6-trimethoxystyryl-3-(succinamido)-4-methoxybenzyl-sulfone] | < 10 | < 10 | < 10 | < 10 |

Second part, the compound after the results:

| IC50 [1] [µM] | IC50 [2] [µM] | IC50 [3] [µM] | IC50 [4] [µM] | Compound |
| --- | --- | --- | --- | --- |
| < 10 | < 10 | < 10 | < 10 | COc1cc(OC)c(/C=C/S(=O)(=O)Cc2ccc(OC)c(NC(C)=O)c2)c(OC)c1 [Example 18, (E)-2,4,6-Trimethoxystyryl-3-(acetamido)-4-methoxybenzyl-sulfone] |
| < 10 | < 10 | < 10 | < 10 | COc1cc(OC)c(/C=C/S(=O)(=O)Cc2ccc(OC)c(NC(=O)c3ccc(N4CCN(C)CC4)cc3)c2)c(OC)c1 [Example 23, (E)-2,4,6-trimethoxystyryl-3-[4-(4-methylpiperazin-1-yl)-benzamido]-4-methoxybenzylsulfone] |
| < 10 | < 10 | < 10 | < 10 | COc1cc(OC)c(/C=C/S(=O)(=O)Cc2ccc(OC)c(NC(C)C(=O)O)c2)c(OC)c1 (centres unmarked) [Example 22, (E)-2,4,6-trimethoxystyryl-3-[(1-carboxyethyl)amino]-4-methoxybenzylsulfone] |
| < 10 | < 10 | < 10 | < 10 | COc1cc(OC)c(/C=C/S(=O)(=O)Cc2ccc(OC)c(NC(=O)CP(=O)(O)O)c2)c(OC)c1 [Example 38, (E)-2,4,6-trimethoxystyryl-3-(phosphonatoacetamido)-4-methoxybenzylsulfone, disodium salt] |
| < 10 | < 10 | < 10 | < 10 | COc1cc(OC)c(/C=C/S(=O)(=O)Cc2ccc(OC)c(NC(=O)CC(=O)O)c2)c(OC)c1 [Example 2, (E)-2,4,6-Trimethoxystyryl-3-(carboxyacetamido)-4-methoxy-benzylsulfone] |
| < 10 | < 10 | < 10 | < 10 | COc1cc(OC)c(/C=C/S(=O)(=O)Cc2ccc(OC)c(NC(N)=O)c2)c(OC)c1 [Example 16, (E)-2,4,6-Trimethoxystyryl-3-(ureido)-4-methoxybenzylsulfone] |
| < 10 | < 10 | < 10 | < 10 | (E)-2,4,6-Trimethoxystyryl-3-amino-4-methoxybenzylsulfone-D-serineamide [Example 15] |
| < 10 | < 10 | < 10 | < 10 | COC(=O)Nc1cc(CS(=O)(=O)/C=C/c2c(OC)cc(OC)cc2OC)ccc1OC [Example 41, (E)-2,4,6-trimethoxystyryl-3-(methoxycarbonylamino)-4-methoxy-benzylsulfone] |
| < 10 | < 10 | < 10 | < 10 | COc1cc(OC)c(/C=C/S(=O)(=O)Cc2ccc(OC)c(NC(=O)c3ccccc3)c2)c(OC)c1 [Example 9, (E)-2,4,6-Trimethoxystyryl-3-(benzamido)-4-methoxybenzyl-sulfone] |
| < 10 | < 10 | < 10 | < 10 | COc1cc(OC)c(/C=C/S(=O)(=O)Cc2ccc(OC)c(NC(=O)CO)c2)c(OC)c1 [Example 24, (E)-2,4,6-trimethoxystyryl-3-(hydroxyacetamido)-4-methoxy-benzylsulfone] |
| < 10 | < 10 | < 10 | < 10 | COc1cc(OC)c(/C=C/S(=O)(=O)Cc2ccc(OC)c(NCCCC(=O)O)c2)c(OC)c1 [Example 39, (E)-2,4,6-trimethoxystyryl-3-(3-carboxypropylamino)-4-methoxybenzylsulfone] |
